Assay results taken from patent US20250353842A1, “BICYCLIC AMINE CDK12 INHIBITORS” (Incyte Corporation, priority 2022, published 2025).

Target: CDK12 complexed with Cyclin K (Homo sapiens (Human), UniProt Q9NYV4)
Test: CDK enzymatic assay (HTRF, LANCE Ultra kinase assay)
Assay type: biochemical
Details: 60 minutes pre-incubation, 1 mM ATP
Summary of the method: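 GST-tagged human CDK12 co-expressed with full-length Cyclin K in baculovirus, pre-incubated 60 min with compound, then 1 mM ATP and 50 nM ULight-4E-BP1 peptide (final) in pH 7.5 HEPES buffer for 60-90 min at room temperature. EDTA/Eu-anti-phospho-4E-BP1 stop; 665/620 nm HTRF ratio normalized to DMSO and no-enzyme controls, IC50 from 3- or 4-parameter fit.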

CDK12 complexed with Cyclin K, sequence (Q9NYV4 whole entry): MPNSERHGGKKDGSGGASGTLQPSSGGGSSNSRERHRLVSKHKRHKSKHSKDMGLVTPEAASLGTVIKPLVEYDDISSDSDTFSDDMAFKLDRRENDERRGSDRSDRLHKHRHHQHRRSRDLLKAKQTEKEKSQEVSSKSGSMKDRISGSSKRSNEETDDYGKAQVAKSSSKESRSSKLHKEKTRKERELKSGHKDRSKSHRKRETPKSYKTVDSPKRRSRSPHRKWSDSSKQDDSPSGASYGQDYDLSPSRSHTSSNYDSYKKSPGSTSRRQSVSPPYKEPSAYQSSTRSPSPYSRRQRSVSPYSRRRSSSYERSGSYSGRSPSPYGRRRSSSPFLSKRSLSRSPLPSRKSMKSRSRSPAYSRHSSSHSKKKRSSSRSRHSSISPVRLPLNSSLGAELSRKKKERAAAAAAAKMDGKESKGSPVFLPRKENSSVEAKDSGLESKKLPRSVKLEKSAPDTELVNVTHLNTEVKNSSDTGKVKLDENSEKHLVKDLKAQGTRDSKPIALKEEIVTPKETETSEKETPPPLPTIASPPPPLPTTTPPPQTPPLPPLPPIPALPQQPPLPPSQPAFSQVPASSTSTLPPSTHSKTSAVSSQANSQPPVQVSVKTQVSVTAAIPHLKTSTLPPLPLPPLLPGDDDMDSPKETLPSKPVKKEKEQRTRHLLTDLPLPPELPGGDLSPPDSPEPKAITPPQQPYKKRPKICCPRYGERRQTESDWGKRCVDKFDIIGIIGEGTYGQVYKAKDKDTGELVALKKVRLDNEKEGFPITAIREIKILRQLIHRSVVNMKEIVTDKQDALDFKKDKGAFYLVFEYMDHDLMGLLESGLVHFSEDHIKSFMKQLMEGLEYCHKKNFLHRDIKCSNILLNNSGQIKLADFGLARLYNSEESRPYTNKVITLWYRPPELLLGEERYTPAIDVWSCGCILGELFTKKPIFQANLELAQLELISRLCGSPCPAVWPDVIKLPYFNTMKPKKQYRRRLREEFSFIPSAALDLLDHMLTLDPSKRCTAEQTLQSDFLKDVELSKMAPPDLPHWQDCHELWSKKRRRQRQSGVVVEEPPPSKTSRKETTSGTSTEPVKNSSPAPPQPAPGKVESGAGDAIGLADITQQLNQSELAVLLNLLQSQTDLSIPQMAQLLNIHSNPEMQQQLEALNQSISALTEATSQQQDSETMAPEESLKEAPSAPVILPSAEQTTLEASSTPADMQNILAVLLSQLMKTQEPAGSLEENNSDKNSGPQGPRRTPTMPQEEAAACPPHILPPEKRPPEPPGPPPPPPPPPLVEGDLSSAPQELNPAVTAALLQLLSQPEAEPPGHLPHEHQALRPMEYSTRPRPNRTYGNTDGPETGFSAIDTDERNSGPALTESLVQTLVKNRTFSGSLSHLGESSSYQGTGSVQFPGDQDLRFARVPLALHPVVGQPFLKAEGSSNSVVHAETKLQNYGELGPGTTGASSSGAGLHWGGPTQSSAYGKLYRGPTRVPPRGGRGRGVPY
CDK12 complexed with Cyclin K, sequence (O75909 whole entry partner): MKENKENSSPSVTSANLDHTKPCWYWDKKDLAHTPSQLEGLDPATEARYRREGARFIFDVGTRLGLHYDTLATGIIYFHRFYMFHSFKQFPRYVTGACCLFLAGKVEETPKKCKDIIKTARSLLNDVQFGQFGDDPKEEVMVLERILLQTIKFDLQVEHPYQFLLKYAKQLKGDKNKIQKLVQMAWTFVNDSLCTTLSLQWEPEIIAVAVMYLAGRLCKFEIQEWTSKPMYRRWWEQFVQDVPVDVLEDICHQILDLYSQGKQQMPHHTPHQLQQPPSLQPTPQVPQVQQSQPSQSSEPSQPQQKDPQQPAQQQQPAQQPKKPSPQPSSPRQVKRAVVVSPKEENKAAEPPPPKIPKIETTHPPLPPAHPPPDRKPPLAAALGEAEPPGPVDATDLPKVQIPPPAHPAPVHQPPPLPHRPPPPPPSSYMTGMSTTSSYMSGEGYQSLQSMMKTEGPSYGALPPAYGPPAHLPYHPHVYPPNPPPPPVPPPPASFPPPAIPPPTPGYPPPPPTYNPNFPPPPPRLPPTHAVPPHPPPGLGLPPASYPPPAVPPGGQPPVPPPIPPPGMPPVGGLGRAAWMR

IC50, 50 to 500 nM:
Cc1ccncc1-c1cnc2c(c1)ncn2[C@H]1CCC[C@@H](Nc2ncc(C#N)c(-c3cnn(CC(F)F)c3)n2)C1 [Example 77, 4-(1-(2,2-Difluoroethyl)-1H-pyrazol-4-yl)-2-(((1R,3S)-3-(6-(4-methylpyridin-3-yl)-3H-imidazo [4,5-b]pyridin-3-yl)cyclohexyl)amino)pyrimidine-5-carbonitrile]

IC50, < 50 nM:
Cn1cc(-c2nc(N[C@@H]3CCC[C@H](n4cnc5cc(C#N)cnc54)C3)ncc2C#N)cn1 [Example 64, 3-((1S,3R)-3-((5-Cyano-4-(1-methyl-1H-pyrazol-4-yl)pyrimidin-2-yl)amino)cyclohexyl)-3H-imidazo[4,5-b]pyridine-6-carbonitrile]
N#Cc1cnc2c(c1)ncn2[C@H]1CCC[C@@H](Nc2ncc(C#N)c(-c3cnn(-c4ccccc4)c3)n2)C1 [Example 65, 3-((1S,3R)-3-((5-Cyano-4-(1-phenyl-1H-pyrazol-4-yl)pyrimidin-2-yl)amino)cyclohexyl)-3H-imidazo[4,5-b]pyridine-6-carbonitrile]
N#Cc1cnc2c(c1)ncn2[C@H]1CCC[C@@H](Nc2ncc(C#N)c(-c3cnn(C4COC4)c3)n2)C1 [Example 66, 3-((1S,3R)-3-((5-Cyano-4-(1-(oxetan-3-yl)-1H-pyrazol-4-yl)pyrimidin-2-yl)amino)cyclohexyl)-3H-imidazo[4,5-b]pyridine-6-carbonitrile]
CC(O)Cn1cc(-c2nc(N[C@@H]3CCC[C@H](n4cnc5cc(C#N)cnc54)C3)ncc2C#N)cn1 (stereo partly drawn) [Example 67, 3-((1S,3R)-3-((5-Cyano-4-(1-(2-hydroxypropyl)-1H-pyrazol-4-yl)pyrimidin-2-yl)amino)cyclohexyl)-3H-imidazo[4,5-b]pyridine-6-carbonitrile]
N#Cc1cnc2c(c1)ncn2[C@H]1CCC[C@@H](Nc2ncc(C#N)c(-c3cnn(CCO)c3)n2)C1 [Example 68, 3-((1S,3R)-3-((5-Cyano-4-(1-(2-hydroxyethyl)-1H-pyrazol-4-yl)pyrimidin-2-yl)amino)cyclohexyl)-3H-imidazo[4,5-b]pyridine-6-carbonitrile]
N#Cc1cnc2c(c1)ncn2[C@H]1CCC[C@@H](Nc2ncc(C#N)c(-c3cnn(CC4CC4)c3)n2)C1 [Example 69, 3-((1S,3R)-3-((5-Cyano-4-(1-(cyclopropylmethyl)-1H-pyrazol-4-yl)pyrimidin-2-yl)amino)cyclohexyl)-3H-imidazo[4,5-b]pyridine-6-carbonitrile]
N#Cc1cnc2c(c1)ncn2[C@H]1CCC[C@@H](Nc2ncc(C#N)c(-c3cnn(CCF)c3)n2)C1 [Example 70, 3-((1S,3R)-3-((5-Cyano-4-(1-(2-fluoroethyl)-1H-pyrazol-4-yl)pyrimidin-2-yl)amino)cyclohexyl)-3H-imidazo[4,5-b]pyridine-6-carbonitrile]
N#Cc1cnc2c(c1)ncn2[C@H]1CCC[C@@H](Nc2ncc(C#N)c(-c3cnn(C4CC4)c3)n2)C1 [Example 71, 3-((1S,3R)-3-((5-Cyano-4-(1-cyclopropyl-1H-pyrazol-4-yl)pyrimidin-2-yl)amino)cyclohexyl)-3H-imidazo[4,5-b]pyridine-6-carbonitrile]
CC(C)n1cc(-c2nc(N[C@@H]3CCC[C@H](n4cnc5cc(C#N)cnc54)C3)ncc2C#N)cn1 [Example 72, 3-((1S,3R)-3-((5-Cyano-4-(1-isopropyl-1H-pyrazol-4-yl)pyrimidin-2-yl)amino)cyclohexyl)-3H-imidazo[4,5-b]pyridine-6-carbonitrile]
CCn1cc(-c2nc(N[C@@H]3CCC[C@H](n4cnc5cc(C#N)cnc54)C3)ncc2C#N)cn1 [Example 73, 3-((1S,3R)-3-((5-Cyano-4-(1-ethyl-1H-pyrazol-4-yl)pyrimidin-2-yl)amino)cyclohexyl)-3H-imidazo[4,5-b]pyridine-6-carbonitrile]
CC(=O)N1CCN(c2cnc3c(c2)ncn3[C@H]2CCC[C@@H](Nc3ncc(C#N)c(-c4cnn(CC(F)F)c4)n3)C2)CC1 [Example 74, 2-(((1R,3S)-3-(6-(4-Acetylpiperazin-1-yl)-3H-imidazo[4,5-b]pyridin-3-yl)cyclohexyl)amino)-4-(1-(2,2-difluoroethyl)-1H-pyrazol-4-yl)pyrimidine-5-carbonitrile]
CN1CCN(c2cnc3c(c2)ncn3[C@H]2CCC[C@@H](Nc3ncc(C#N)c(-c4cnn(CC(F)F)c4)n3)C2)CC1 [Example 75, 4-(1-(2,2-Difluoroethyl)-1H-pyrazol-4-yl)-2-(((1R,3S)-3-(6-(4-methylpiperazin-1-yl)-3H-imidazo[4,5-b]pyridin-3-yl)cyclohexyl)amino)pyrimidine-5-carbonitrile]
N#Cc1cnc(N[C@@H]2CCC[C@H](n3cnc4cc(N5CCOCC5)cnc43)C2)nc1-c1cnn(CC(F)F)c1 [Example 76, 4-(1-(2,2-Difluoroethyl)-1H-pyrazol-4-yl)-2-(((1R,3S)-3-(6-morpholino-3H-imidazo[4,5-b]pyridin-3-yl)cyclohexyl)amino)pyrimidine-5-carbonitrile]
C=C(C)c1cnc2c(c1)ncn2[C@H]1CCC[C@@H](Nc2ncc(C(F)(F)F)c(-c3cnn(CC(F)F)c3)n2)C1 [Example 78, 4-(1-(2,2-Difluoroethyl)-1H-pyrazol-4-yl)-N-((1R,3S)-3-(6-(prop-1-en-2-yl)-3H-imidazo[4,5-b]pyridin-3-yl)cyclohexyl)-5-(trifluoromethyl)pyrimidin-2-amine]
FC(F)Cn1cc(-c2nc(N[C@@H]3CCC[C@H](n4cnc5cc(C6CC6)cnc54)C3)ncc2C(F)(F)F)cn1 [Example 79, N-((1R,3S)-3-(6-Cyclopropyl-3H-imidazo[4,5-b]pyridin-3-yl)cyclohexyl)-4-(1-(2,2-difluoroethyl)-1H-pyrazol-4-yl)-5-(trifluoromethyl)pyrimidin-2-amine]
FC(F)Cn1cc(-c2nc(N[C@@H]3CCC[C@H](n4cnc5cc(-c6cn[nH]c6)cnc54)C3)ncc2C(F)(F)F)cn1 [Example 80, N-((1R,3S)-3-(6-(1H-Pyrazol-4-yl)-3H-imidazo[4,5-b]pyridin-3-yl)cyclohexyl)-4-(1-(2,2-difluoroethyl)-1H-pyrazol-4-yl)-5-(trifluoromethyl)pyrimidin-2-amine]
Cn1cc(-c2cnc3c(c2)ncn3[C@H]2CCC[C@@H](Nc3ncc(C(F)(F)F)c(-c4cnn(CC(F)F)c4)n3)C2)cn1 [Example 81, 4-(1-(2,2-Difluoroethyl)-1H-pyrazol-4-yl)-N-((1R,3S)-3-(6-(1-methyl-1H-pyrazol-4-yl)-3H-imidazo[4,5-b]pyridin-3-yl)cyclohexyl)-5-(trifluoromethyl)pyrimidin-2-amine]
FC(F)Cn1cc(-c2nc(N[C@@H]3CCC[C@H](n4cnc5cc(-c6cccnc6)cnc54)C3)ncc2C(F)(F)F)cn1 [Example 82, 4-(1-(2,2-Difluoroethyl)-1H-pyrazol-4-yl)-N-((1R,3S)-3-(6-(pyridin-3-yl)-3H-imidazo[4,5-b]pyridin-3-yl)cyclohexyl)-5-(trifluoromethyl)pyrimidin-2-amine]
FC(F)Cn1cc(-c2nc(N[C@@H]3CCC[C@H](n4cnc5cc(N6CCCC6)cnc54)C3)ncc2C(F)(F)F)cn1 [Example 83, 4-(1-(2,2-Difluoroethyl)-1H-pyrazol-4-yl)-N-((1R,3S)-3-(6-(pyrrolidin-1-yl)-3H-imidazo[4,5-b]pyridin-3-yl)cyclohexyl)-5-(trifluoromethyl)pyrimidin-2-amine]
